Each structure is given as a SMILES string. Where a name gives a salt, the structure may show the parent alone.

The target in the experiment is T1, recombinant human CXCR2 (Homo sapiens, UniProt P25025).
T1 construct: TEV protease site; Gal4-VP16 transcription factor
T1 sequence (P25025 1-360): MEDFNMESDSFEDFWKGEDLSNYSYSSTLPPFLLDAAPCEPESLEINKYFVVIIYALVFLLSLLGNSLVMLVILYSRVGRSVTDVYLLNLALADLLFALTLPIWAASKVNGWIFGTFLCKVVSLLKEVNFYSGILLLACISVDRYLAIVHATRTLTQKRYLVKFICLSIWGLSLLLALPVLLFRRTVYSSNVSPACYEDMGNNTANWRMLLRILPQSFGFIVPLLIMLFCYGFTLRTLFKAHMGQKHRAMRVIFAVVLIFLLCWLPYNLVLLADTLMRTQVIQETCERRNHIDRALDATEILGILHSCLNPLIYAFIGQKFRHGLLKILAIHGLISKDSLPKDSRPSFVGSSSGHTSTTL
The experiment can be described thus: CXCR2 Tango assay. Format: cell-based. The conditions noted are these: mean pIC50 of multiple test results; stimulated with 80 nM hCXCL1; reporter gene blue/green emission ratio; read-out: pIC50 (CXCR2 Tango assay) (converted). The text has this:
The assay measures ligand-induced activation of the receptor CXCR2 in a stable cell line containing the recombinant human CXCR2 linked to a TEV protease site and a Gal4-VP16 transcription factor (Invitrogen). Ligand binding to the receptor results in the recruitment of arrestin proteins (tagged with protease) to the receptor and triggers the release of a tethered transcription factor. The transcription factor enters the nucleus and activates the transcription of the reporter gene. The ability of a compound to inhibit CXCR2 activation is indirectly assessed by measuring the reporter gene activity.
A vial of cryopreserved cells was removed from liquid nitrogen and rapidly thawed in a water bath at 37° C. with gentle agitation. The contents of the vial were transferred drop-wise into Thawing Medium in a sterile 15 ml conical tube and then centrifuged at 1000 rpm for 4-5 min. Then the cell pellets were resuspended in Assay Medium at a density of ˜200,000 cells/ml. All test compounds were dissolved in DMSO at a concentration of 10 mM and were prepared in 100% DMSO to provide 10 point dose response curves. A reference CXCR2 antagonist was added to wells in row 2, columns 1-5 & 7-11. Exemplified compounds 1-4, 7, 8-10, 13-22, 24-26, 28-30, 32, 33, 36, 37, 40, 42-44. 95-110, 115-118, 120, 121, 125, 126, 129-134, 137, 138, 140, 142, 147-149, 153-157, 159-162, 163-166, 168, 170, 172, 174-180 and 202 were tested using the CXCR2 antagonist sodium 3-chloro-6-(3-(2,3-dichlorophenyl)ureido)-2-sulfamoylphenolate as reference compound (Reference Compound 1) (published International patent application WO2002/079122). […] Test compounds were added to wells in row 2, columns 13-17 & 19-23 and rows 3-15, columns 1-5 & 7-11/13-17 & 19-23 (columns 6 and 18 as positive controls and un-stimulated controls respectively; columns 12 and 24 as cell-free control). Compounds in solution were added to the assay plate (Greiner 781090) using an Echo (Labcyte) concentration-response program (50 nl/well). The cell-free, un-stimulated and positive controls were loaded with 50 nl/well pure DMSO to ensure that the DMSO concentration was constant across the plate for all assays. Using Multi-drop Combi (Thermo) with standard cassette, 50 μl of Assay Medium was added to each well in the cell-free controls (columns 12 and 24); 50 μl of the cell suspension without hCXCL1 (a CXCR2 ligand) was added to each well in column 18 of the plate (˜10,000 cells per well); and 50 μl of the cell suspension with 80 nM hCXCL1 was added to the rest of wells of the plate (˜10,000 cells per well). The cells were incubated overnight at 37° C./5% CO2. 10 μl of 6× substrate mixture (LiveBLAzer™-FRET B/G substrate (CCF4-AM) Cat # K1096 from Invitrogen, Inc.) was added to each well using Multi-drop Combi (Thermo) with small-tube cassette and the plates incubated at room temperature for 2 h in the dark. The plate was finally read on EnVision using one excitation channel (409 nm) and two emission channels (460 nm and 530 nm).
The blue/green emission ratio (460 nm/530 nm) was calculated for each well, by dividing the background-subtracted Blue emission values by the background-subtracted Green emission values. The dose response curve was based on sigmoidal dose-response model. All ratio data was normalized based upon the maximum emission ratio of positive control (hCXCL1) and minimum emission ratio of negative control (DMSO) on each plate. The intrinsic activity (IA) of each compound would be the normalized percentage of its maximum response after curve fitting.
All exemplified compounds (except for Compounds 203 and 204) were tested in the CXCR2 Tango assay or a similar assay described above. The data mentioned below represents a mean pIC 50 value of multiple test results. It is understood that the data illustrated below may have reasonable variation depending on the specific conditions and procedures used by the person conducting the testing.
(Reporter assays use an easily measured gene product as a stand-in for the process of interest.)
As for `CC1=CCCC1NC(=O)Nc1ccc(Cl)c(S(=O)(=O)N2CCC(F)(F)CC2)c1O` (stereo not drawn) [Compound 115, 1-(4-chloro-3-((4,4-difluoropiperidin-1-yl)sulfonyl)-2-hydroxyphenyl)-3-(2-methylcyclopent-2-en-1-yl)urea], the IC50 is not above 10 nM.
In the case of `CC1=CCC[C@H]1NC(=O)Nc1ccc(Cl)c(S(=O)(=O)[C@H]2C[C@H](C(F)F)C2)c1O` [Compound 48, 1-(4-chloro-3-((trans-3-(difluoromethyl)cyclobutyl)sulfonyl)-2-hydroxyphenyl)-3-((R)-2-methylcyclopent-2-en-1-yl)urea] it was not above 1 nM; in that of `CC1=CCC[C@H]1NC(=O)Nc1ccc(Cl)c(S(=O)(=O)C(C)(C)C(F)(F)F)c1O` [Compound 58, (R)-1-(4-chloro-2-hydroxy-3-((1,1,1-trifluoro-2-methylpropan-2-yl)sulfonyl)phenyl)-3-(2-methylcyclopent-2-en-1-yl)urea], not above 1 nM.
In the case of `CCO[C@H]1C[C@@H](S(=O)(=O)c2c(Cl)ccc(NC(=O)N[C@@H]3CCC=C3C)c2O)C1` [Compound 124, (R)-1-(4-chloro-3-((cis-3-ethoxycyclobutyl)sulfonyl)-2-hydroxyphenyl)-3-(2-methylcyclopent-2-en-1-yl)urea] it was not above 1 nM; in that of `CO[C@H]1C[C@@H](S(=O)(=O)c2c(Cl)ccc(NC(=O)NC3CCC=C3C)c2O)C1` (stereo partly drawn) [Compound 148, 1-(4-chloro-2-hydroxy-3-((cis-3-methoxycyclobutyl)sulfonyl)phenyl)-3-(2-methylcyclopent-2-en-1-yl)urea], not above 10 nM.
In the case of `CO[C@@H]1CC[C@@H](S(=O)(=O)c2c(Cl)ccc(NC(=O)N[C@@H]3CCC=C3C)c2O)C1` (stereo in doubt) [Compound 143, trans-1-(4-chloro-2-hydroxy-3-((3-methoxycyclopent-yl)sulfonyl)phenyl)-3-((R)-2-methylcyclopent-2-en-1-yl)urea] it was not above 1 nM; in that of `[2H]C([2H])([2H])C1(S(=O)(=O)c2c(Cl)ccc(NC(=O)N[C@@H]3CCC=C3Cl)c2O)CCOC1` (stereo partly drawn) [Compound 183, 1-(4-chloro-2-hydroxy-3-((3-(d3-methyl)tetrahydro-furan-3-yl)sulfonyl)phenyl)-3-((R)-2-chlorocyclopent-2-en-1-yl)urea], not above 10 nM.
For `CC1=CCC[C@H]1NC(=O)Nc1ccc(Cl)c(S(=O)(=O)C(C)(C)C2COC2)c1O` [Compound 61, (R)-1-(4-chloro-2-hydroxy-3-((2-(oxetan-3-yl)propan-2-yl)sulfonyl)phenyl)-3-(2-methylcyclopent-2-en-1-yl)urea], the IC50 is not above 1 nM.
The result for `CCN(CC)S(=O)(=O)c1c(Cl)ccc(NC(=O)NC2CCC=C2C)c1O` (stereo not drawn) [Compound 121, 6-chloro-N,N-diethyl-2-hydroxy-3-(3-(2-methylcyclopent-2-en-1-yl)ureido)benzene-sulfonamide] reads not above 10 nM; that for `CC1=CCCC1NC(=O)Nc1ccc(Cl)c(S(=O)(=O)N2CC[C@@H](F)C2)c1O` (stereo partly drawn) [Compound 113, 1-(4-chloro-3-(((R)-3-fluoropyrrolidin-1-yl)sulfonyl)-2-hydroxyphenyl)-3-(2-methylcyclopent-2-en-1-yl)urea], not above 10 nM; that for `CC1=CCCC1NC(=O)Nc1ccc(Cl)c(S(=O)(=O)[C@H]2CC[C@H](N3CCCC3)CC2)c1O` (stereo partly drawn) [Compound 98, 1-(4-chloro-2-hydroxy-3-(((1R,4R)-4-(pyrrolidin-1-yl)cyclohexyl)sulfonyl)phenyl)-3-(2-methylcyclopent-2-en-1-yl)urea, trifluoroacetic acid salt], not above 1 nM.
In the case of `O=C(Nc1ccc(Cl)c(S(=O)(=O)[C@H]2C[C@@H](O)C2)c1O)NC1C=CCC1` (stereo partly drawn) [Compound 164, 1-(4-chloro-2-hydroxy-3-((cis-3-hydroxycyclobutyl)sulfonyl)phenyl)-3-(cyclopent-2-en-1-yl)urea] it was not above 10 nM.

These data come from patent US10106515B2, “1-(cyclopent-2-en-1-yl)-3-(2-hydroxy-3-(arylsulfonyl)phenyl)urea derivatives as CXCR2 inhibitors” (GLAXOSMITHKLINE INTELLECTUAL PROPERTY DEVELOPMENT LIMITED, priority 2014, dated 2018).
